# Tested on: primary osteoblasts
# Test: Alkaline phosphatase (ALP) activity of osteoblasts
# Format: cell-based, Wistar rats
# Conditions: day 15 of treatment; 10^-9 M 1,25(OH)2D3, 1 μM OLP, 1 μM HTy; vs negative control (C-); FIGS. 3 to 6
# Protocol: Primary osteoblasts were isolated from the calvaria of newborn Wistar rats by enzymatic digestion as described by Declercq et al. in 2004. During all experiments, cells were maintained in α-minimal essential medium with 10% heat-inactivated fetal bovine serum and 1% penicillin/streptomycin under conditions of 5% CO2 and 37° C. Cells were seeded on Coll-1-coated 96-well plates at a density of 3500 cells/well or in 24-well plates at a density of 3×10^4 cells/well and cultured for 2 days in o-MEM to reach confluence. Cells were then exposed to different conditions: minimal medium (C−), minimal medium containing 50 μg/ml ascorbic acid, 5 mM ß-glycerophosphate (C+; optimized medium), and minimal medium supplemented with 1 μM Oleuropein ([…]) or/and 10^−9 M 1,25 dihydroxyvitamin D3 (1,25(OH)2D3). OLP and HTy were dissolved in dimethylsulfoxide (DMSO) and 1,25(OH)2D3 was dissolved in ethanol. The final concentrations of DMSO and ethanol in the medium were 0.1% each. The medium was changed every 2 days.
# Enzymatic activity of Alkaline Phosphatase (ALP) was measured kinetically on Treatment Days 0, 5, 9, 12 and 15. Osteoblasts were rinsed twice with PBS before being frozen on dry ice. […] Absorbance was measured at 405 nm and 30° C., and every 2 min 30 s for 30 min using a VarioSklan Flash microplate reader. ALP activity was expressed as micromoles of p-NPP per hour per milligram of protein. […]
smiles,measurement,value
"C=C1/C(=C\C=C2/CCC[C@]3(C)[C@@H]([C@H](C)CCCC(C)(C)O)CC[C@@H]23)C[C@@H](O)C[C@@H]1O [Vitamin D3, 1,25 dihydroxyvitamin D3]",AP (ALP) activity / osteoblast activity,small but statistically significant increase

# Source: patent US11166965B2, “Compositions for use in stimulating bone growth” (Société des Produits Nestlé S.A., priority 2013, dated 2021)
